From PMC5400251, “Effect of quinoline based 1,2,3-triazole and its structural analogues on growth and virulence attributes of Candida albicans” (PLoS ONE, 2017)
≈ marks a conversion by molar mass, not a printed value.

Legend:
[1] = test system: C. albicans ATCC 90028, C. albicans D27 (FLC-susceptible) and C. albicans D15.9 (FLC-resistant); experiment: Time kill curve study, three strains; assay type: cell-based; settings: for Fungicidal or fungistatic nature: time kill curves, at 2MIC
Method: Time-kill curves were used for testing the fungicidal or fungistatic nature of the lead inhibitors 3a and 3b. The experimental procedure was performed according to the method reported by Wang et al.. C. albicans ATCC 90028, C. albicans D27 (FLC-susceptible) and C. albicans D15.9 (FLC-resistant) strains were used as test organisms. Fluconazole was used as a positive control. Freshly prepared sterile YEPD medium was inoculated by fresh culture (approx. 2×10^3 cells) of test organisms in different conical flasks. The cells were exposed to the test compounds at 2MIC, MIC and MIC/2 values, separately. All the conical flasks having different sets of test compounds and concentrations were incubated at 37°C and 160 rpm. At predetermined time points (0, 4, 12, 24, and 48 h after incubation with agitation at 37°C), a 100-μL aliquot was removed from every solution and appropriately diluted in sterile water. A 100-μl aliquot from each dilution was spread over the YEPD agar plate. Colony counts were determined after incubation at 37°C for 24 h. All the time-kill curve experiments were conducted in duplicate and mean colony count data (log10 CFU/mL) were plotted as a function of time for each strain.

[2] = biological target: T1, plasma membrane H+ ATPase (Candida albicans, UniProt P28877); experiment: cell-based; parameters: species or system C. albicans D15.9 (FLC-resistant); settings: for inhibition at 100 µg/mL: read-out: Inhibition of H+ extrusion
T1 construct: endogenous in cells; host or cells: C. albicans ATCC 90028; clinical isolates C. albicans D27 (FLC-susceptible) and D15.9 (FLC-resistant); mid-log phase whole cells
T1 sequence (P28877 whole entry): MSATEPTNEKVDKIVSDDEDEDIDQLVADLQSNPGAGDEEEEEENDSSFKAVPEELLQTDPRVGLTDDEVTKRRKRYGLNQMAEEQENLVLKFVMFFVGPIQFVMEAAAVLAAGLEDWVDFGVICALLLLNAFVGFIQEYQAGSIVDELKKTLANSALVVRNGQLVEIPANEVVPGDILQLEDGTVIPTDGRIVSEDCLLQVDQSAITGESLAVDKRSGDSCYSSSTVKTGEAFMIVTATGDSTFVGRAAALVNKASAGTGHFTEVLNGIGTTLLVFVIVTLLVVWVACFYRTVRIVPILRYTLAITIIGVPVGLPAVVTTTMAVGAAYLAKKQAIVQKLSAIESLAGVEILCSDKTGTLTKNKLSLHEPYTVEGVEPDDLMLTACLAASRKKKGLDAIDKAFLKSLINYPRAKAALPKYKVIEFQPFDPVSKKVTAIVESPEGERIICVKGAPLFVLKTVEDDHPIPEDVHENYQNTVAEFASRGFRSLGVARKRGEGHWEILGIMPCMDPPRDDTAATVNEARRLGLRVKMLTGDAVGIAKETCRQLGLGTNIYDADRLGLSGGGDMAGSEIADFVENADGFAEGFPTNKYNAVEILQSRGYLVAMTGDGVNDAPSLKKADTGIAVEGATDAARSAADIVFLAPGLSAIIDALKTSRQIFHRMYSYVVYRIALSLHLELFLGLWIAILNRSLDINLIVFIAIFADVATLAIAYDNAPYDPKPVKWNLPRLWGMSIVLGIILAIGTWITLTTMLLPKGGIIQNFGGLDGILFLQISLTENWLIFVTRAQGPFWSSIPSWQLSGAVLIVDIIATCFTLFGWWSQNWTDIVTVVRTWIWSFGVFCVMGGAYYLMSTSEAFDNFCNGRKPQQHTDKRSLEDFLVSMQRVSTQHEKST
Method: (§1) The proton pumping activity of C. albicans was determined by monitoring acidification of external medium by measuring pH as describe earlier. In brief, the mid-log phase cells were harvested from SD medium by centrifugation at 3000 rpm for 15 min which is followed by three washings with phosphate buffer saline (PBS). A solution containing 0.1 M KCl and 0.1 mM CaCl2 in distilled water was prepared. Compounds 3a and 3b at the concentrations of 50 and 100 μg/mL were separately added in this solution. […] Initial pH was adjusted to 7.0 using 0.01 M HCl/NaOH. Approximately 0.2 g of cells were suspended in each set of solution. Suspension was kept in a double-jacketed glass container with constant stirring. Again, the pH of suspension was maintained as 7.0 for 1 min by using 0.01 N NaOH. The rate of H^+ extrusion was then monitored and calculated from the volume of 0.01 N NaOH consumed per min per mg weight of cells. Glucose has been reported as the stimulator of proton extrusion pump. Therefore above experiment was also repeated in the presence of 5 mM of glucose.

[3] = biological target: T1, plasma membrane H+ ATPase; experiment: Proton extrusion measurement (H+ efflux); assay type: cell-based, C. albicans D27 (FLC-susceptible)
Method: as §1

C. albicans ATCC 90028 [4] = experiment: Transmission electron microscopic analysis of morphology; assay type: cell-based; settings: MIC, 1 h exposure
Method: The morphology of C. albicans ATCC 90028 was analyzed using TEM following the standard protocol. […] Cells were then washed thrice with phosphate buffer solution to remove the residual medium and fixed overnight in 2.5% glutaraldehyde in phosphate/magnesium buffer (40 mM K2HPO4/KH2PO4, pH 6.5–0.5 mM MgCl2). Cells were washed twice for 15 min in 0.1 M sodium phosphate buffer (pH 6.0) and post-fixed for 2 h in 2% osmium tetroxide. Cells were again washed twice for 15 min in distilled water and then en bloc stained with 1% uranyl acetate (aqueous) for 30 min. After two further washes, cells were dehydrated in 95% and 100% ethanol. Cells were then exposed to propylene oxide for 2×10 min and infiltrated for 1 h in 1:1 propylene/epoxy embedding material (Epon) mixture and then overnight in fresh Epon. After polymerization for 48 h at 60°C, ultrathin sections were cut using a microtome (LeicaEM UC6) and transferred to a copper grid. Samples were stained with uranyl acetate (saturated solution of uranyl acetate in 50% alcohol) followed by lead citrate. Samples were washed three times in Milli-Q (MQ) water and dried by touching Whatman filter paper. Sections were examined with a FEI Tecnai G^2 TF20 transmission electron microscope at 200 KV.

[5] = test system: C. albicans ATCC 90028, C. albicans D27 and C. albicans D15.9; experiment: Growth assay (growth curve), all three strains; assay type: cell-based
Method: The C. albicans cells were freshly revived by subculture on the SD agar plate. A loopful of inoculum was introduced into the SD broth and cells were grown for 16 h at 37°C before use. Approximately 2×10^3 cells/mL were then inoculated into the freshly prepared 50 mL sterile SD medium. […] At predetermined time periods (0, 2, 4, 6, 8, 10, 12, 14, 16, 18, 20 22, and 24 after incubation with agitation at 37°C), 1 mL aliquot of each sample was removed from the conical flask and growth was measured tubidometrically at 600 nm using Thermo Multiskan spectrophotometer. Optical density was recorded for each concentration against time (h).

C. albicans ATCC 90028 [6] = experiment: Broth dilution IC50 determination; assay type: cell-based; settings: Candida albicans, ATCC90028, SD broth, 37°C, 24 h, OD 600 nm, read-out: Anti-Candida Activity (IC50± S.D.) C. albicans ATCC90028
Method: (§2) Broth dilution technique was employed to determine the IC50 values of all the synthesized 1,2,3 triazole derivatives (3a-c) against C. albicans ATCC 90028, C. glabrata ATCC 90030, C. tropicalis ATCC 750 and four clinical isolates of C. albicans namely D27, D31, D39 (FLC-sensitive) and D15.9 (FLC-resistant). The strains were maintained on yeast extract:peptone:dextrose ([…]) nutrient agar (2.5%) slants at 4°C. The test compounds were dissolved in DMSO with less than 4% concentration of it in the final test volume. Different concentrations (1000… 7.8 μg/mL) of test compounds in Sabouraud dextrose (SD) broth medium were dispensed into the wells, then inoculated with the test organism with approx. 2.5 × 10^3 cells/mL and incubated at 37°C for 24 h. After incubation period, the optical density was measured at 600 nm by using Thermo Scientific Multiskan Go plate reader. […] All the experiments were done in triplicate at separate times.

[7] = test system: C. albicans D31 (FLC-sensitive clinical isolate); experiment: Broth dilution IC50 determination; assay type: cell-based; settings: Candida albicans, 24 h; read-out: Anti-Candida Activity (IC50± S.D.) C. albicans D31
Method: as §2

[8] = 50 μg/mL in presence of glucose (5 mM)
[9] = 100 μg/mL in presence of glucose (5 mM)
[10] = in the presence of glucose (5 mM), 100 μg/mL, read-out: Inhibition of H+ extrusion rate
[11] = read-out: Inhibition of H+ extrusion

`Clc1ccc(OCc2cn(Cc3ccccc3)nn2)c2ncccc12` [Compound 3b, 8-((1-Benzyl-1H-1,2,3-triazol-4-yl)methoxy)-5-chloroquinoline] was tested, and the “Change in CFU/mL with time interval” value ([1]; dose dependent) was “only slight increase in CFU/mL”, the “Fungicidal or fungistatic nature” value [1] was “fungistatic” and the “Range of relative H+ efflux rate” value [2, 8] was 25.00 ± 1.2 ×10^−6 mol min^−1 mg cells^−1. For the same compound, the “Range of relative H+ efflux rate” value ([2]; 50 μg/mL, no glucose) was 18.30 ± 0.9 ×10^−6 mol min^−1 mg cells^−1, the “Range of relative H+ efflux rate” value [2, 9] was 21.00 ± 1.0 ×10^−6 mol min^−1 mg cells^−1 and the “Range of relative H+ efflux rate” value ([2]; 100 μg/mL, no glucose) was 16.00 ± 0.8 ×10^−6 mol min^−1 mg cells^−1. For the same compound, the inhibition at 100 µg/mL [2] was 42%, the “Range of relative H+ efflux rate” value [3, 8] was 22.30 ± 1.1 ×10^−6 mol min^−1 mg cells^−1 and the “Range of relative H+ efflux rate” value ([3]; 50 μg/mL, no glucose) was 17.60 ± 0.8 ×10^−6 mol min^−1 mg cells^−1. For the same compound, the “Range of relative H+ efflux rate” value [3, 9] was 19.30 ± 0.9 ×10^−6 mol min^−1 mg cells^−1, the “Range of relative H+ efflux rate” value ([3]; 100 μg/mL, no glucose) was 16.00 ± 0.8 ×10^−6 mol min^−1 mg cells^−1 and the inhibition at 100 µg/mL [3, 10] was 52%. The inhibition at 100 µg/mL [3, 11] was 65%, the “Cell morphology by TEM” value (C. albicans ATCC 90028 [4]) was “several deformations” and the Growth inhibition ([5]; at 2MIC and MIC) was “significant growth inhibition”. The IC50 (C. albicans ATCC 90028 [6]) was 25.4 ± 0.76 µg/mL (≈ 72.4 µM) and the IC50 [7] was 41.5 ± 1.24 µg/mL (≈ 118 µM).
In the case of `c1ccc(Cn2cc(COc3cccc4cccnc34)nn2)cc1` [Compound 3a], the “Change in CFU/mL” value ([1]; 2MIC, after 48 h, all three test strains) is reported as “significant decrease in CFU/mL”, the “Fungicidal or fungistatic nature” value [1] is reported as “fungicidal” and the “Range of relative H+ efflux rate” value [2, 8] is reported as 28.30 ± 1.4 ×10^−6 mol min^−1 mg cells^−1. For the same compound, the “Range of relative H+ efflux rate” value ([2]; 50 μg/mL, no glucose) was 21.60 ± 1.0 ×10^−6 mol min^−1 mg cells^−1, the “Range of relative H+ efflux rate” value [2, 9] was 20.00 ± 1.0 ×10^−6 mol min^−1 mg cells^−1 and the “Range of relative H+ efflux rate” value ([2]; 100 μg/mL, no glucose) was 16.70 ± 0.8 ×10^−6 mol min^−1 mg cells^−1. For the same compound, the inhibition at 100 µg/mL [2] was 40%, the “Range of relative H+ efflux rate” value [3, 8] was 21.60 ± 1.0 ×10^−6 mol min^−1 mg cells^−1 and the “Range of relative H+ efflux rate” value ([3]; 50 μg/mL, no glucose) was 20.00 ± 1.0 ×10^−6 mol min^−1 mg cells^−1. For the same compound, the “Range of relative H+ efflux rate” value [3, 9] was 19.30 ± 0.9 ×10^−6 mol min^−1 mg cells^−1, the “Range of relative H+ efflux rate” value ([3]; 100 μg/mL, no glucose) was 16.60 ± 0.8 ×10^−6 mol min^−1 mg cells^−1 and the inhibition at 100 µg/mL [3, 10] was 52%. For the same compound, the inhibition at 100 µg/mL [3, 11] was 45%, the “Cell morphology by TEM” value (C. albicans ATCC 90028 [4]) was “several deformations” and the “Lag phase (no growth)” value ([5]; 2MIC, MIC and MIC/2, all three strains) was “more than 24 h”. The IC50 (C. albicans ATCC 90028 [6]) was 0.044 ± 0.11 µg/mL (≈ 0.139 µM) and the IC50 [7] was 3.3 ± 0.065 µg/mL (≈ 10.4 µM).
